The source of these data is patent US12631620B2, “Methods of generating organoids for high throughput screening of drugs” (Yissum Research Development Company of the Hebrew …, priority 2019, dated 2026).

Where a name gives a salt, the structure may show the parent alone. Numbered stars: 1 amine (or outer) side, 2 acyl side, 3 side chain; on linkers, the order of the positions; unused ones are H or OH. Bridge positions count the residues as written; N and C are the ends. Square brackets hold non-standard residues; d marks the D form. Peptide text beside a SMILES is read from it. I, II: the chains in the order shown. Actinocin(9to1) = Cc1c2oc3c(C)ccc(C(=O)[*:1])c3nc-2c(C(=O)[*:2])c(N)c1=O; NMeV = CN[C@H](C(=O)O)C(C)C; Sar = CNCC(=O)O

The assay relates to U87-MG spheroids. Put plainly: High throughput kinetic oxygen screen of FDA-approved anticancer drugs on U87-MG micro-tumors with embedded oxygen sensors, 384-well plate. The following applies: 5 μM; U87-MG cells embedded in collagen gel or basement membrane gel. Type of assay: cell-based, human. On the procedure: In general, cells were kept under standard conditions in a humidified incubator at 37° C., under 5% CO2. U87-MG cells (obtained from the American Type Culture Collection (ATCC)) were cultured in Eagle's Minimum Essential Medium (EMEM) (ATCC® 30-2003™) supplemented with 15% (volume/volume) fetal bovine serum (FCS), 100 U/mL penicillin, and 100 μg/mL streptomycin (Sigma-Aldrich). Medium was changed every 2 days and cells were split every 5 days. Patient's specific glioblastoma derived cells (obtained from Cleveland clinic) were cultured in Neurobasal™ Medium (Trademark Serial number: 77137832) minus phenol red (Thermo-Fischer Scientific) supplemented with 1× (volume/volume) B27 minus Vitamin A (Thermo-Fischer Scientific), 10 ng/ml basic fibroblast growth factor (bFGF) 10 ng/ml EGF (epidermal growth factor) (PEPROTECH), 100 U/mL penicillin, 100 μg/mL streptomycin (Sigma-Aldrich) and L-Alanyl-L-Glutamine (Biological Industries). Medium was changed every 3 days and cells were split every 2-3 weeks. Rat retinal capillary endothelial cells (RCECs) were cultured in EGM™-2 Endothelial Cell Growth Medium-2 BulletKit™ (Lonza). Medium was changed every 3 days and cells were split every 6 days.
For tumor organoid formation, cancer cells were cultured to reach the adequate number needed for a 384 well plate. Cells were trypsinized, counted, and centrifuged at 300 g for 5 minutes at 4° C. The pellet was then mixed with 5 mg CPOx-50-RuP oxygen-sensing beads (Colibri Photonics) and resuspended in 800 μl of ice-cold solution of collagen type I (BD Biosciences) or Matrigel® Basement Membrane Matrix, Growth Factor Reduced (GFR) (Corning) for a final seeding density of 25-50×10^6 cells/mL. In some cases, endothelial cells (RCECs) are used in the assembly of the tumor spheroids by mixing them with same or double the number of tumor cells (i.e. 1:1 or 1:2 ratios) before centrifugation. The 800 μl mix was then equally distributed into a PCR strip (100 μl/tube) and passed to a Biomek i5 liquid handling workstation (Beckman Coulter) for the formation of uniformly-sized organoid in 384-well plate. The plate was then incubated for 30 minutes at 37° C., and the medium was replaced using the liquid handing workstation. Medium was changed every two days for 4 days before adding the drugs (5 μM of NIH chemotherapeutic drugs in triplicates per drug).
On the day of measurement, medium was changed 2-12 hours before drug induction, based on the oxygen consumption of the microtissue (e.g., U87-MG spheroids are given 6 hours after media change before drugs are induced).
After applying the drugs, the plate was placed on the DynamiX bioanalyzer (Tissue Dynamics). Organoids positions were detected optically. Oxygen content was monitored at a predetermined rate of 1 to 10 seconds of measurement at each location (e.g. Matrigel®/U87-MG spheroids treated with a set of FDA-approved anticancer drugs to enable cancer research was measured via phosphorescence for 4 seconds/well). Each cycle takes between 10-120 minutes, dependent on sampling rate and well number (e.g., Matrigel®/U87-MG spheroids 384 well at a sampling rate of 4 measurements/well take about 60 minutes for each cycle). […]
Further validation was usually done by multiple independent repeats (e.g. Matrigel®/U87-MG spheroids treated with a set of FDA-approved anticancer drugs to enable cancer research [AOD IX] were assessed in 3 independent experiments). […]
For the compound `Cc1c2oc3c(C)ccc(C(=O)N[C@@H]4C(=O)N[C@H](C(C)C)C(=O)N5CCC[C@H]5C(=O)N(C)CC(=O)N(C)[C@@H](C(C)C)C(=O)O[C@@H]4C)c3nc-2c(C(=O)N[C@@H]2C(=O)N[C@H](C(C)C)C(=O)N3CCC[C@H]3C(=O)N(C)CC(=O)N(C)[C@@H](C(C)C)C(=O)O[C@@H]2C)c(N)c1=O` [Dactinomycin] (I: T[dV]P[Sar][NMeV] / II: T[dV]P[Sar][NMeV]; ester I:1-I:C, II:1-II:C; linker I:N-II:N via Actinocin(9to1)), the “type of response in kinetic oxygen measurement (positive, false negative, false positive)” value is “false positive”. In the case of `COC(=O)C[C@](O)(CCCC(C)(C)O)C(=O)O[C@@H]1C(OC)=C[C@]23CCCN2CCc2cc4c(cc2[C@H]13)OCO4` [Omacetaxine mepesuccinate] it was “positive”. `CC(C)C[C@H](NC(=O)[C@H](Cc1ccccc1)NC(=O)c1cnccn1)B(O)O` [Bortezomib]: the “type of response in kinetic oxygen measurement (positive, false negative, false positive)” value was “positive”. In the case of `Cc1c(C(=O)Nc2ccc(N3C[C@@H](C)O[C@@H](C)C3)nc2)cccc1-c1ccc(OC(F)(F)F)cc1` [Erismodegib] it was “false positive”; in that of `COc1cccc2c1C(=O)c1c(O)c3c(c(O)c1C2=O)C[C@@](O)(C(C)=O)C[C@@H]3O[C@H]1C[C@H](N)[C@H](O)[C@H](C)O1` [Daunorubicin hydrochloride], “false negative”.
